Reference: patent US9108923B2, “Compounds, compositions, and methods for cancer therapy” (The Broad Institute, Inc., priority 2012, dated 2015)
pEC50: −log10 of the molar value. Read-outs that look alike come from different tables or passages of the source. Blank lines part the entries; values can stand above or below the compound they belong to.

Key:
[1] = stability at room temperature (remark with characterisation data); type: physicochemical
BJ vs. BJ-ELR = test: Assessment of Cancer/Normal Selective Toxicity (crystal violet); type: cell-based, human; conditions: crystal violet staining, 48 h
HeLa cells [2] = test: Glutathione Assay (GSH/GSSG-Glo), total cellular glutathione; type: cell-based, human; conditions: 6 h treatment
HeLa cells [3] = test: Immunofluorescence Detection of Glutathionylated Proteins; conditions: for elevation of protein glutathionylation (in words): HeLa cells, monoclonal antibody recognizing glutathione
H1703 = test: ATP Assay (CellTiter-Glo), cellular ATP levels as surrogate for cell viability; type: cell-based, human
Description: (§1) ATP Assay. […] At that time, media was removed and replaced with a solution of CellTiter-Glo reagent (Promega) in PBS. After ten minutes, luminescence was read using an EnVision multilabel plate reader (Perkin-Elmer) and signal intensity was calculated relative to in-plate DMSO control wells.
(§2) We next sought to determine the performance of the synthetic analogs relative to PL in cells. […] As a second assay, effects of compound treatments on ATP levels, a surrogate for cell viability, were measured after 48 hours.
(§3) Assays were performed in 384-well plates on two human cancer cell lines, H1703 (lung) and HeLa (cervix).

HeLa = test: as above; type: cell-based, human
Description: as §1, §2, §3

[4] = system: EJ bladder carcinoma line; test: Glutathione Assay (GSH/GSSG-Glo), total cellular glutathione; conditions: EJ cells, 3 h treatment
[5] = system: H1703 (lung) and HeLa (cervix); test: ROS Assay (CM-H2DCF-DA, automated microscopy); type: cell-based, human; conditions: 90 minutes after compound treatment
[6] = system: H1703 (lung) and HeLa (cervix); test: ATP assay / cellular toxicity, covering both cell lines; type: cell-based, human; conditions: two cell lines tested, ATP levels after 48 h
[7] = Homo sapiens, NCI-H1703; Table 1; cellular ATP levels, 48 h; read-out: EC50 H1703
[8] = Table 2; cellular ATP levels, 48 h; read-out: EC50 H1703
[9] = Homo sapiens, HeLa; Table 1; cellular ATP levels, 48 h; read-out: EC50 HeLa
[10] = Table 2; cellular ATP levels, 48 h; read-out: EC50 HeLa
[11] = Homo sapiens, NCI-H1703; Table 2; cellular ATP levels, 48 h; read-out: EC50 H1703
[12] = Homo sapiens, HeLa; Table 2; cellular ATP levels, 48 h; read-out: EC50 HeLa

Structure (SMILES): COc1cc(/C=C/C(=O)N2CCC=C(C#CCN(C)C)C2=O)cc(OC)c1OC [(E)-3-(3-(dimethylamino)prop-1-ynyl)-1-(3-(3,4,5-trimethoxyphenyl)prop-2-enoyl)-5,6-dihydropyridin-2(1H)-one]
stability at room temperature [1]: decomposes slowly at room temperature

Structure (SMILES): S=C=NCCc1ccccc1 [Phenethylisothiocyanate, reference compound]
selective toxicity toward transformed BJ-ELR over BJ fibroblasts (in words) (BJ vs. BJ-ELR): showed selectivity in this assay

Structure (SMILES): COc1cc(/C=C/C(=O)N2CCC=CC2=O)cc(OC)c1OC [compound 1, piperlongumine, reference compound]
decrease in total glutathione (in words) (HeLa cells [2]): most effective | elevation of protein glutathionylation (in words) (HeLa cells [3]): large and rapid elevations in protein glutathionylation | reversal of protein glutathionylation by 0.1 M dithiothreitol (HeLa cells [3]; treatment with 0.1 M dithiothreitol): could not be reversed | pEC50 (H1703; Homo sapiens, NCI-H1703, 48 h, read-out: EC50 H1703): 5.55 | pEC50 (HeLa; Homo sapiens, HeLa, 48 h, read-out: EC50 HeLa): 5.15 | decrease in total cellular glutathione [4]: ca. 60%

Structure (SMILES): COc1cc(/C=C/C(=O)N2CCCCC2=O)cc(OC)c1OC [compound 2, 1-[(2E)-3-(3,4,5-trimethoxyphenyl)prop-2-enoyl]piperidin-2-one]
pEC50 (H1703; [7]): < 4.70 | pEC50 (H1703; [8]): < 4.70 | pEC50 (HeLa; [9]): < 4.70 | pEC50 (HeLa; [10]): < 4.70 | elevation of ROS levels (in words) [5]: neither elevated ROS levels

Structure (SMILES): COC(=O)CSC1CCN(C(=O)/C=C/c2cc(OC)c(OC)c(OC)c2)C(=O)C1 (stereo not drawn) [compound 25]
pEC50 (H1703; read-out: EC50 H1703; Table 2; cellular ATP levels, 48 h): 5.10 | pEC50 (HeLa; read-out: EC50 HeLa; Table 2; cellular ATP levels, 48 h): < 4.70 | elevation of ROS levels (in words) [5]: substantially less potent than PL | viability / cellular toxicity (in words) [6]: substantially less potent than PL at inducing cancer cell death

More lines, main results first:

pEC50 (H1703; [7]): 6.15 | pEC50 (HeLa; [9]): 5.89
Structure (SMILES): COc1cc(/C=C/C(=O)N2CCC=C(C#CC3CC3)C2=O)cc(OC)c1OC [compound 5, (E)-3-(cyclopropylethynyl)-1-(3-(3,4,5-trimethoxyphenyl)prop-2-enoyl)-5,6-dihydropyridin-2(1H)-one]
elevation of protein glutathionylation (in words) (HeLa cells [3]): large and rapid elevations in protein glutathionylation

pEC50 (H1703; [8]): 4.85 | pEC50 (HeLa; [10]): < 4.70
Structure (SMILES): COc1cc2c(c(OC)c1OC)CCC(C(=O)N1CCC=CC1=O)=C2 [compound 29, 1-(5,6,7-trimethoxy-3,4-dihydronaphthalene-2-carbonyl)-5,6-dihydropyridin-2(1H)-one]
elevation of protein glutathionylation (in words) (HeLa cells [3]): minimal elevation | elevation of ROS levels (in words) [5]: robust enhancement of ROS levels | viability / cellular toxicity (in words) [6]: diminished cell death relative to PL | decrease in total cellular glutathione [4]: ca. 60%

pEC50 (H1703; [8]): 5.57 | pEC50 (HeLa; [10]): 5.39
Structure (SMILES): O=C1C=CCCN1S(=O)(=O)/C=C/c1ccccc1 [compound 52, 1-{[(E)-2-phenylvinyl]sulfonyl}-5,6-dihydropyridin-2(1H)-one]
selective toxicity toward transformed BJ-ELR over BJ fibroblasts (in words) (BJ vs. BJ-ELR): selectivity comparable to PL

pEC50 (H1703; [11]): 5.26 | pEC50 (HeLa; [12]): 4.82
Structure (SMILES): O=C1C=CCCN1C(=O)CCC(=O)N1CCC=CC1=O [compound 77]

pEC50 (H1703; [11]): 6.52 | pEC50 (HeLa; [12]): 6.11
Structure (SMILES): O=C1C=CCCN1C(=O)/C=C/c1ccc(/C=C/C(=O)N2CCC=CC2=O)cc1 [compound 78]
